Results as given in patent publication US20230033849A1, “CBD SUNSCREEN FORMULATIONS AND USES THEREOF” (JUPITER WELLNESS, INC., priority 2021, published 2023).

Key:
[1] = test system: Human primary epidermal melanocytes (ATCC PCS200-013); assay: MTT cell viability assay of melanocytes after UVB irradiation; type: cell-based; conditions: Melanocyte, light or radiation study, approximately 60 mJ/cm^2, 0 μM control 16%, read-out: viability after UV irradiation
Protocol: (§1) Human primary epidermal melanocytes (ATCC PCS200-013) and keratinocytes (ATCC PCS 200-011) cell-lines were cultured using serum free complete growth media (ATCC PCS 200-030). Cells were cultured at 37 C.° with 5% CO2. Cells were grown to 80% confluence before being washed with PBS buffer (37° C.) and trypsinized with EDTA-trypsin. A small aliquot of cells was stained with Trypan blue and counted using a haemocytometer. The remaining cells were plated in a 24 well plate with 300 uL of complete growth media (ATCC) for UV experimentation. Approximately 27*10^3 cells were added to each well. Twenty-four hours after inoculation, individual wells were treated with one of three different concentrations of CBD isolate (CBD Brands, Jupiter, Fla.) or left untreated (control). The concentrations of CBD used were 1 μM, 4 μM and 8 μM, respectively.
After CBD treatment for 1 hour, all cells were washed and with chilled (4° C.) PBS buffer. UV exposure experiments were conducted in chilled PBS buffer to avoid heat stress. Cells were irradiated with UVB light (Dermalight 80, UVB lamp). The distance of the lamp to the wells of the plate was kept constant at 3 cm. Exposure times were determined prior to the experiment, empirically, by exposing different wells to increasing UV exposure time and next conducting an MTT assay. […] The chosen exposure time was based on the exposure time that led to greater than 40% cell viability versus untreated cells determined by MTT assay. CBD treated cells were exposed to UV light for this predetermined time of 10 seconds (approximately 60 mJ/cm^2). After exposure the effect of CBD on cell viability was evaluated by an MTT assay. Control cells were cultured in parallel with no CBD treatment, but underwent UVB irradiation.

[2] = test system: Human primary epidermal keratinocytes (ATCC PCS 200-011); assay: MTT cell viability assay of keratinocytes after UVB irradiation; type: cell-based; conditions: CBD 1 μM, 4 μM and 8 μM for 1 hour before UVB, 10 seconds (approximately 60 mJ/cm^2), cells not treated with CBD 17%
Protocol: as §1
After CBD treatment for 1 hour, all cells were washed and with chilled (4° C.) PBS buffer. […] Exposure times were determined prior to the experiment, empirically, by exposing different wells to increasing UV exposure time and next conducting an MTT assay. […] The chosen exposure time was based on the exposure time that led to greater than 40% cell viability versus untreated cells determined by MTT assay. […] After exposure the effect of CBD on cell viability was evaluated by an MTT assay. […]

Work on `C=C(C)[C@@H]1CCC(C)=C[C@H]1c1c(O)cc(CCCCC)cc1O` [CBD, cannabidiol] yielded a viability at 1 µM ([1]; 1 μM CBD for 1 hour before UVB) of 48%, a viability at 4 µM ([1]; 4 μM CBD for 1 hour before UVB) of 65% and a viability at 8 µM ([1]; 8 μM CBD for 1 hour before UVB) of 12%. For the same compound, the “cell viability after irradiation with UVB” value [2] was “dose dependent increase in cell viability”.
